Here are results for one molecule from US12090184B2, “Traditional Chinese medicine composition for treating dermatophytosis and bromhidrosis and application thereof” (JINGCHU UNIVERSITY OF TECHNOLOGY, priority 2019, dated 2024).

Format in all cases: cell-based
Assay [1] has as its system Aspergillus fumigatus ATCC-MYA-3626. Description: in vitro anti-fungal test, 80% MIC (CLSI M-38P). The source says:
(§1) 1. The present disclosure conducts an in vitro anti-fungal test on the composition extracts in Examples 1 to 3, and the single radix sophorae flavescentis alkaloid and single peristrophe japonica extracts prepared in Example 3. The cell strains used in the test are all ATCC standard strains provided by the Fungi Center of the Medical Microbial (Virus) Species Collection and Management Center of the Ministry of Health, which includes as follows, Aspergillus: Aspergillus fumigatus Strain Number: CMCCC(F) A1g (ATCC-MYA-3626); Candida: Candida albicans Strain Number: CMCCC (F) C.1L (ATCC90028); Trichophyton: Trichophyton rubrum Strain Number: CMCCC(F)T.1h (ATCC-MYA-4438); Trichophyton mentagrophytes Strain Number: CMCCC(F)T.5e (ATCC-MYA-4439).
(§2) 2. The specific experimental methods are carried out with reference to the standard methods of yeast M-27A3 and filamentous fungi M-38P issued by the Clinical and Laboratory Standards Institute (US, CLSI) of the United States.
(§3) Before the experiment, after activating the experimental bacteria, yeast are cultured on Sabouraud Dextrose Agar(SDA) medium at 30° C. for 48 hours; filamentous fungi are cultured on potato dextrose agar (PDA) medium at 26° C. for 7 days to 10 days. A suspension is prepared with sterile normal saline, the suspension is counted by a hemocytometer, and is dilute with RMPI-1640 liquid medium containing 2% glucose in multiple amounts to Candida albicans 1.0×10^3 cfu/mL; the other three filamentous fungi are prepared into 2.5×10^4 cfu/mL. 0.1 mL of bacterial solutions are taken respectively, the culture medium containing the compositions prepared in Examples 1 to 3 and the same doses of the radix sophorae flavescentis alkaloids and the peristrophe japonica extracts prepared in Example 3 are added into each well, wherein the well 11 is a vehicle control, the well 12 is a medium control. 0.1 mL of the diluted solvent is added into the vehicle control well, and 0.1 mL of the distilled water is added into the control well. […]

In assay [2] the test system is Trichophyton mentagrophytes ATCC-MYA-4439. In words: in vitro anti-fungal test, 80% MIC (CLSI M-38P).
Source text: as §1, §2, §3

For assay [3], the system named is Trichophyton rubrum ATCC-MYA-4438. Description: in vitro anti-fungal test, 80% MIC (CLSI M-38P).
Source text: as §1, §2, §3

The subject of assay [4] is Candida albicans ATCC90028. Description: in vitro anti-fungal test, 80% MIC (CLSI M-27A3).
Source text: as §1
2. […]
Before the experiment, after activating the experimental bacteria, yeast are cultured on Sabouraud Dextrose Agar(SDA) medium at 30° C. for 48 hours; filamentous fungi are cultured on potato dextrose agar (PDA) medium at 26° C. for 7 days to 10 days. A suspension is prepared with sterile normal saline, the suspension is counted by a hemocytometer, and is dilute with RMPI-1640 liquid medium containing 2% glucose in multiple amounts to Candida albicans 1.0×10^3 cfu/mL; the other three filamentous fungi are prepared into 2.5×10^4 cfu/mL. […]

As to `CCC(C)n1ncn(-c2ccc(N3CCN(c4ccc(OCC5COC(Cn6cncn6)(c6ccc(Cl)cc6Cl)O5)cc4)CC3)cc2)c1=O` (stereo not shown) [Itraconazole], the “80% MIC” value is reported as 4.2 in assay [1], 5.8 in assay [2], 5.6 in assay [3] and 3.8 in assay [4].
